Paper PMC9775191, “A Subset Screen of the Compounds Australia Scaffold Library Identifies 7-Acylaminodibenzoxazepinones as Potent and Selective Hits for Anti-Giardia Drug Discovery” (Biomedicines, 2022)
Where two headings read alike, the source gives them in different places.

Tests used:
[1] = system: Klebsiella pneumoniae (ATCC 700603); experiment: Anti-bacterial activity assay; format: cell-based; settings: ATCC700603, 50 µM, read-out: Bacterial Inhibition K. pneumoniae
Protocol: (§1) The activity of compounds against methicillin resistant Staphylococcus aureus (ATCC 43300), Escherichia coli (ATCC 25922), Acinetobacter baumannii (ATCC 19606) and Klebsiella pneumoniae (ATCC 700603) was assessed at 50 µM in duplicate as previously described. In brief, mid-log phase bacteria cultures were added to 384-well microtiter plate wells containing compound to final cell density of 5 × 10^5 CFU/mL in 50 µL. Plates were then covered and incubated at 37 °C for 18 h without shaking. Inhibition of bacterial growth was determined by measuring absorbance at 600 nm (Tecan M1000 Pro monochromator plate reader) and calculating percentage growth inhibition relative to the negative media and bacteria without inhibitors. Vancomycin hydrochloride (Sigma-Aldrich an affiliate of Merck KGaA, Darmstadt, Germany, #861987) and colistin sulfate (Sigma-Aldrich an affiliate of Merck KGaA, Darmstadt, Germany, C4461) were on each plate as positive controls for Gram-positive (S. aureus) and Gram-negative (E. coli, A. baumannii and K. pneumoniae) bacteria, respectively.

[2] = system: Acinetobacter baumannii (ATCC 19606); experiment: Anti-bacterial activity assay; format: cell-based; settings: ATCC19606, 50 µM
Protocol: as §1

[3] = system: Escherichia coli (ATCC 25922); experiment: Anti-bacterial activity assay; format: cell-based; settings: Escherichia coli, ATCC25922, 50 µM; read-out: Bacterial Inhibition E. coli
Protocol: as §1

[4] = system: methicillin resistant Staphylococcus aureus (ATCC 43300); experiment: Anti-bacterial activity assay; format: cell-based; settings: Staphylococcus aureus, ATCC43300, 50 µM; read-out: Bacterial Inhibition S. aureus
Protocol: as §1

[5] = system: G. duodenalis BRIS/91/HEPU/1279; experiment: Giardia dose response assay, assemblage B; format: cell-based, Giardia duodenalis
Protocol: In these assays, compounds were serially diluted (8–12-point doubling dilutions in technical duplicate) in DMSO control media, with all test wells inoculated with parasites (1.5 × 10^4 parasites for BRIS/91/HEPU/1279 and BRIS/91/HEPU/1279m1, or 3 × 10^3 parasites for BRIS/87/HEPU/713). […] All plates were sealed in culture chambers and gassed with 3% O2, 5% CO2 in N2 and incubated at 37 °C for 48 h, with parasites imaged and enumerated at 24 and 48 h. Growth inhibition was calculated as a percentage relative to vehicle controls minus any background as described above and IC50 values were determined using log-linear interpolation as previously described. […] Statistical comparison of IC50 values when required were performed using Student’s t-test.

[6] = system: Neonatal foreskin fibroblast (NFF) cells; experiment: Mammalian cell cytotoxicity assay (sulforhodamine B); format: cell-based, human; settings: for inhibition at 20 µM / IC50: Homo sapiens, NFF; for inhibition at 20 µM: ±SD; for Selectivity: NFF IC50 divided by G. duodenalis BRIS/91/HEPU/1279 IC50
Protocol: The selectivity of compounds of interest was assessed against NFF cells. Assays were performed using sulforhodamine B and included media only, negative (no compound, no DMSO), and vehicle (DMSO) controls as previously described. A chloroquine control plate was included in each assay. […] Repurchased SN00797640 was tested in dose–response from 100 µM against NFF. Selectivity indices (SI) were calculated by dividing mammalian cell IC50 values by G. duodenalis BRIS/91/HEPU/1279 IC50 values.

[7] = system: G. duodenalis BRIS/91/HEPU/1279; experiment: Primary Giardia screen at 10 µM (live-cell imaging, automated counting); format: cell-based, Giardia duodenalis; settings: for inhibition at 10 µM: Giardia duodenalis
In short: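 Singlicate, 10 μM final, 0.2% DMSO; sealed chambers, 3% O2/5% CO2/N2. Counts by live-cell imaging at 24 h and 48 h. % growth vs vehicle, media background subtracted; Z' per plate.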

[8] = Giardia duodenalis, 24 h, read-out: G. duodenalis IC50 24h, Table S2, 24 h, ±SD, max 10 µM
[9] = Giardia duodenalis, 48 h, Table S2, 48 h, ±SD, max 10 µM, read-out: G. duodenalis IC50 48h
[10] = 24 h, first singlicate assay, read-out: % Inhibition n=1 24h
[11] = 24 h, re-assessment, read-out: % Inhibition n=2 24h
[12] = 24 h, read-out: Average % Inhibition 24h
[13] = 48 h, first singlicate assay, read-out: % Inhibition n=1 48h
[14] = 48 h, re-assessment, read-out: % Inhibition n=2 48h
[15] = 48 h, read-out: Average % Inhibition 48h
[16] = Giardia duodenalis, 48 h, BRIS/91/HEPU/1279, 48 h, mean ± SD, read-out: IC50 Giardia (48 h)
[17] = BRIS/91/HEPU/1279, 48 h, mean ± SD, read-out: IC50 Giardia (48 h)

SMILES: O=C(Nc1nc(-c2ccco2)c(-c2ccco2)s1)c1ccccc1 [SN00769776, O=C(Nc1sc(c2ccco2)c(n1)c1ccco1)c1ccccc1]
- inhibition at 50 µM [1]: 32.1%
- inhibition at 50 µM [2]: 23.4%
- inhibition at 50 µM [3]: 8.92%
- inhibition at 50 µM [4]: 6.45%
- IC50 [5, 8]: > 10 µM
- IC50 [5, 9]: > 10 µM
- inhibition at 20 µM [6]: 24.8 ± 11.7%
- inhibition at 10 µM [7, 10]: 35.4%
- inhibition at 10 µM [7, 11]: 19%
- inhibition at 10 µM [7, 12]: 27.2%
- inhibition at 10 µM [7, 13]: 77.6%
- inhibition at 10 µM [7, 14]: 64.8%
- inhibition at 10 µM [7, 15]: 71.2%

SMILES: COc1cc(OC)c(C2=CCN(C(=O)c3ccc(C)s3)CC2)c(OC)c1 [SN00769982, COc1cc(OC)c(C2=CCN(CC2)C(=O)c2ccc(C)s2)c(OC)c1]
- inhibition at 50 µM [1]: 15.6%
- inhibition at 50 µM [2]: 2.57%
- inhibition at 50 µM [3]: 6.08%
- inhibition at 50 µM [4]: 3.41%
- IC50 [5, 8]: > 10 µM
- IC50 [5, 9]: 9.59 µM
- inhibition at 20 µM [6]: -9.1 ± 3.8%
- inhibition at 10 µM [7, 10]: 46.2%
- inhibition at 10 µM [7, 11]: 0%
- inhibition at 10 µM [7, 12]: 23.1%
- inhibition at 10 µM [7, 13]: 78.1%
- inhibition at 10 µM [7, 14]: 40.5%
- inhibition at 10 µM [7, 15]: 59.3%

SMILES: Cc1cc(-c2cc(C(=O)Nc3c(C)n(C)n(-c4ccccc4)c3=O)c3cnn(C(C)C)c3n2)c(C)o1 [SN00776477]
- IC50 [5, 16]: > 10 µM
- inhibition at 10 µM [7, 13]: 0%

SMILES: Cc1ccc(NC(=O)c2oc3ccccc3c2NC(=O)c2ccccc2)cc1 [SN00785329]
- IC50 [5, 16]: > 10 µM

SMILES: COc1ccc(C(=O)Nc2ccc3c(c2)Oc2ccccc2C(=O)N3C)c(OC)c1 [SN00797635]
- IC50 [5, 16]: > 10 µM

SMILES: Cc1ccc(N2CC(C(=O)Nc3ccc4c(c3)Oc3ccccc3C(=O)N4C)CC2=O)cc1C (centres unmarked) [SN00797636]
- IC50 [5, 16]: > 10 µM

SMILES: COc1cc(OC)cc(C(=O)Nc2ccc3c(c2)Oc2ccccc2C(=O)N3C)c1 [SN00797637]
- IC50 [5, 16]: 5 µM

SMILES: CN1C(=O)c2ccccc2Oc2cc(NC(=O)CNC(=O)c3ccco3)ccc21 [SN00797638]
- IC50 [5, 16]: > 10 µM

SMILES: Cc1cccc(C(=O)Nc2ccc3c(c2)Oc2ccccc2C(=O)N3C)c1 [SN00797639]
- IC50 [5, 16]: > 10 µM

SMILES: CN1C(=O)c2ccccc2Oc2cc(NC(=O)COc3ccc(Cl)cc3)ccc21 [SN00797641]
- IC50 [5, 16]: > 10 µM

SMILES: CN1C(=O)c2ccccc2Oc2cc(NC(=O)C3(c4ccccc4)CC3)ccc21 [SN00797642]
- IC50 [5, 16]: > 10 µM

SMILES: CCc1ccc(C(=O)Nc2ccc3c(c2)Oc2ccccc2C(=O)N3C)cc1 [SN00797643]
- IC50 [5, 16]: 0.47 µM
- IC50 ([6]; mean ± SD, read-out: IC50 NFF): > 10 µM
- Selectivity [6]: >20

SMILES: CN1C(=O)c2ccccc2Oc2cc(NC(=O)c3ccoc3)ccc21 [SN00797644]
- IC50 [5, 16]: > 10 µM

SMILES: CN1C(=O)c2ccccc2Oc2cc(NC(=O)c3cccc(Br)c3)ccc21 [SN00797645]
- IC50 [5, 16]: > 10 µM

SMILES: COc1ccc(C(=O)Nc2ccc3c(c2)Oc2ccccc2C(=O)N3C)cc1OC [SN00797646]
- IC50 [5, 17]: > 8.6 µM
- IC50 [5, 16]: 8.6 µM

SMILES: CN1C(=O)c2ccccc2Oc2cc(NC(=O)c3ccccc3)ccc21 [SN00797647]
- IC50 [5, 16]: > 10 µM

SMILES: CN1C(=O)c2ccccc2Oc2cc(NC(=O)c3cc4ccccc4[nH]3)ccc21 [SN00797648]
- IC50 [5, 17]: 1.7 µM
- IC50 [5, 16]: 1.4 µM
- IC50 ([6]; mean ± SD, read-out: IC50 NFF): > 20 µM
- Selectivity [6]: >11

SMILES: CN1C(=O)c2ccccc2Oc2cc(NC(=O)c3cc4cc(Cl)ccc4[nH]3)ccc21 [SN00797649]
- IC50 [5, 16]: > 10 µM

SMILES: COc1ccc(C(=O)Nc2ccc3c(c2)Oc2ccccc2C(=O)N3C(C)C)c(OC)c1 [SN00797650]
- IC50 [5, 16]: > 10 µM

SMILES: CC(=O)Nc1cccc(C(=O)Nc2ccc3c(c2)Oc2ccccc2C(=O)N3C(C)C)c1C [SN00797651]
- IC50 [5, 16]: > 10 µM

SMILES: CC(C)N1C(=O)c2ccccc2Oc2cc(NC(=O)CNC(=O)c3ccco3)ccc21 [SN00797652]
- IC50 [5, 16]: > 10 µM

SMILES: Cc1ccc(N2CC(C(=O)Nc3ccc4c(c3)Oc3ccccc3C(=O)N4C(C)C)CC2=O)cc1C (centres unmarked) [SN00797653]
- IC50 [5, 16]: > 10 µM

SMILES: Cc1ccc(N2CC(C(=O)Nc3ccc4c(c3)Oc3ccccc3C(=O)N4C(C)C)CC2=O)cc1 (centres unmarked) [SN00797654]
- IC50 [5, 16]: > 10 µM

SMILES: CC(C)N1C(=O)c2ccccc2Oc2cc(NC(=O)C3CC(=O)N(c4ccccc4)C3)ccc21 (centres unmarked) [SN00797655]
- IC50 [5, 16]: > 10 µM

SMILES: Cc1ccc(C(=O)NCC(=O)Nc2ccc3c(c2)Oc2ccccc2C(=O)N3C(C)C)cc1 [SN00797656]
- IC50 [5, 16]: > 10 µM

SMILES: CC(C)N1C(=O)c2ccccc2Oc2cc(NC(=O)c3cccs3)ccc21 [SN00797657]
- IC50 [5, 16]: > 10 µM

SMILES: Cc1ccc(C(=O)Nc2ccc3c(c2)Oc2ccccc2C(=O)N3C(C)C)cc1 [SN00797658]
- IC50 [5, 16]: > 10 µM

SMILES: CC(C)N1C(=O)c2ccccc2Oc2cc(NC(=O)C3CCCCC3)ccc21 [SN00797659]
- IC50 [5, 16]: > 10 µM

SMILES: CCOc1ccc(C(=O)Nc2ccc3c(c2)N(C(C)C)C(=O)c2ccccc2O3)cc1 [SN00797660]
- IC50 [5, 16]: > 10 µM
- inhibition at 10 µM [7, 13]: 33.8%

SMILES: CC(C)N1C(=O)c2ccccc2Oc2cc(NC(=O)c3ccccc3)ccc21 [SN00797661]
- IC50 [5, 16]: > 10 µM

SMILES: COc1ccc(OCC(=O)Nc2ccc3c(c2)Oc2ccccc2C(=O)N3C(C)C)cc1 [SN00797662]
- IC50 [5, 16]: > 10 µM

SMILES: Cc1ccc(C(=O)Nc2ccc3c(c2)Oc2ccccc2C(=O)N3C(C)C)cc1F [SN00797663]
- IC50 [5, 16]: > 10 µM

SMILES: CCn1ccc(C(=O)Nc2ccc3c(c2)Oc2ccccc2C(=O)N3C(C)C)n1 [SN00797664]
- IC50 [5, 16]: > 10 µM

SMILES: Cc1cc2[nH]c(C(=O)Nc3ccccc3C)c(CN3CCOCC3)c2s1 [SN00798525, Cc1cc2[nH]c(C(=O)Nc3ccccc3C)c(CN3CCOCC3)c2s1]
- inhibition at 50 µM [1]: 6.11%
- inhibition at 50 µM [2]: 4.92%
- inhibition at 50 µM [3]: -0.27%
- inhibition at 50 µM [4]: 22.2%
- IC50 ([6]; Table S2, max 10 µM, read-out: NFF IC50): > 10 µM
- Average % Inhibition 48h ([7]; 48 h): > 90%
- inhibition at 10 µM [7, 10]: 91.4%
- inhibition at 10 µM [7, 11]: 97.9%
- inhibition at 10 µM [7, 12]: 94.7%
- inhibition at 10 µM [7, 13]: 96.5%
- inhibition at 10 µM [7, 14]: 98.8%
- inhibition at 10 µM [7, 15]: 97.6%
